One series relates to Spodoptera frugiperda. The series can be described thus: Spodoptera frugiperda spray test. It is filed as in vivo. The following applies: after 7 days, maize leaf discs. In short, it runs like this:
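Maize leaf discs were sprayed with compound formulated in acetone/DMF and emulsifier-containing water, dried, then infested with Spodoptera frugiperda caterpillars. Percent kill was scored after 7 days, from 100% (all dead) to 0% (none dead).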

Another series has as its system Phaedon cochleariae. The series can be described thus: Phaedon cochleariae spray test. It is filed as in vivo. The following applies: after 7 days, Chinese cabbage leaf discs. In short, it runs like this: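 Chinese cabbage leaf discs sprayed with compound in acetone/DMF and emulsifier-containing water, then infested with mustard beetle larvae once dry. Efficacy in % scored after 7 days (100% = all larvae killed, 0% = none).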

A short description of series [1]: log P by HPLC on reversed-phase column (C 18), EEC Directive 79/831 Annex V.A8. The format is physicochemical. The following applies: 55° C.; for LOGP_HCOOH: log P (HCOOH); for chromatographic logP: reversed-phase HPLC column (C 18). How it is done: Temperature: 55° C. […] Called log P (HCOOH) in the table. […] Called log P (neutral) in the table.
The subject of a further series is Ctenocephalides felis. The series can be described thus: Ctenocephalides felis oral test. The format is in vivo. The following applies: application rate 100 ppm in citrated cattle blood, after 2 days, adult cat fleas. How it is done: Ctenocephalides felis—Oral Test Solvent: dimethyl sulphoxide To produce a suitable active ingredient formulation, 10 mg of active ingredient are mixed with 0.5 ml of dimethyl sulphoxide. Dilution with citrated cattle blood gives the desired concentration. About 20 unfed adult cat fleas (Ctenocephalides felis) are placed into a chamber which is closed at the top and bottom with gauze. A metal cylinder whose bottom end is closed with parafilm is placed onto the chamber. The cylinder contains the blood/active ingredient formulation, which can be imbibed by the fleas through the parafilm membrane. After 2 days, the kill in % is determined. 100% means that all of the fleas have been killed; 0% means that none of the fleas have been killed.

Where [2] appears, read: acidic range at pH 2.7, 0.1% aqueous formic acid and acetonitrile, HPLC on reversed-phase column (C 18).
Setting [3] is: log P, neutral range, HPLC on reversed-phase column (C 18).
[4] abbreviates: acidic range pH 2.7, 0.1% aqueous formic acid and acetonitrile, reversed-phase column (C 18).

Where two headings read alike, the source gives them in different places.

`N#Cc1ccc(CNC(=O)c2cc(-c3ccc([S+]([O-])C(F)F)cc3)cc(NC(=O)C3CC3)n2)cc1` (stereo not drawn) [Example I-179]: the “efficacy (caterpillars killed)” value in the series with Spodoptera frugiperda (application rate 500 g/ha) came to 83%. The “efficacy (beetle larvae killed)” value with Phaedon cochleariae (application rate 100 g/ha) is on record as 83%; in the series with Phaedon cochleariae (application rate 500 g/ha), 100%. For the same compound, the LOGP_HCOOH in series [1] (setting [2]) amounted to 2.53. In series [1] (setting [3]), the LOGP_NEUTRAL turned out to be 2.47. Also, the “efficacy (kill in %)” value in the series on Ctenocephalides felis stood at 100%.

Turning to `CC(C)C(=O)Nc1cc(-c2ccc(OC(F)(F)F)cc2)cc(C(=O)NC2(C#N)CC2)n1` [Example I-075], the “efficacy (caterpillars killed)” value in the series on Spodoptera frugiperda (application rate 500 g/ha) is on record as 100%. In addition, in the series with Phaedon cochleariae (application rate 500 g/ha), the “efficacy (beetle larvae killed)” value was found to be 100%. In series [1] (setting [4]), the LOGP_HCOOH is 3.58. In series [1] (setting [3]), the LOGP_NEUTRAL is 3.47. In addition, in the series with Ctenocephalides felis, the “efficacy (kill in %)” value was determined as 100%.

Turning to `N#Cc1ccc(CNC(=O)c2cc(-c3ccc(OC(F)(F)F)cc3)cc(NC(=O)C3CC3)n2)cn1` [Example I-051], the “efficacy (caterpillars killed)” value in the series on Spodoptera frugiperda (application rate 100 g/ha) and with Spodoptera frugiperda (application rate 500 g/ha) was 100% in each case. The “efficacy (beetle larvae killed)” value with Phaedon cochleariae (application rate 100 g/ha) and with Phaedon cochleariae (application rate 500 g/ha) was 100% throughout. This compound also displayed an LOGP_HCOOH in series [1] (setting [4]) of 3.49. This compound registered an LOGP_NEUTRAL in series [1] (setting [3]) of 3.37. Besides, the “efficacy (kill in %)” value with Ctenocephalides felis is given as 100%.

For `N#CC1(NC(=O)c2cc(-c3ccc(OC(F)(F)F)cc3)cc(NC(=O)C3CC3)n2)CC1` [Example I-076], the “efficacy (caterpillars killed)” value in the series on Spodoptera frugiperda (application rate 100 g/ha) and in the series on Spodoptera frugiperda (application rate 500 g/ha) was 100% each time. Besides, the “efficacy (beetle larvae killed)” value in the series on Phaedon cochleariae (application rate 100 g/ha) and in the series with Phaedon cochleariae (application rate 500 g/ha) was 100% throughout. Also, the LOGP_HCOOH in series [1] (setting [4]) came out at 3.39. Further, the LOGP_NEUTRAL in series [1] (setting [3]) is recorded as 3.29. Besides, the “efficacy (kill in %)” value in the series on Ctenocephalides felis is recorded as 100%.

`N#CC1(NC(=O)c2cc(-c3ccc(OC(F)(F)F)cc3)cc(NC(=O)C3CC3)n2)CCC1` [Example I-109]: the “efficacy (caterpillars killed)” value with Spodoptera frugiperda (application rate 500 g/ha) is reported as 100%. Moreover, in the series with Phaedon cochleariae (application rate 500 g/ha), the “efficacy (beetle larvae killed)” value is 100%. Moreover, the LOGP_HCOOH in series [1] (setting [4]) came to 3.78. In series [1] (setting [3]), this compound registered an LOGP_NEUTRAL of 3.68. Also, in the series on Ctenocephalides felis, the “efficacy (kill in %)” value is reported as 100%.

For the compound `O=C(NCc1ccccn1)c1cc(-c2ccc(OC(F)(F)F)cc2)cc(NC(=O)C2CC2)n1` [Example I-116], the “efficacy (caterpillars killed)” value with Spodoptera frugiperda (application rate 500 g/ha) is 100%. The “efficacy (beetle larvae killed)” value in the series with Phaedon cochleariae (application rate 100 g/ha) and with Phaedon cochleariae (application rate 500 g/ha) was 100% in each case. Besides, the LOGP_HCOOH in series [1] (setting [2]) amounted to 2.88. For the same compound, the LOGP_NEUTRAL in series [1] (setting [3]) is 3.30. Moreover, the “efficacy (kill in %)” value in the series on Ctenocephalides felis is 100%.

In the case of `O=C(NCc1ccc(C(F)(F)F)cc1F)c1cc(-c2ccc(OC(F)(F)F)cc2)cc(NC(=O)C2CC2)n1` [Example I-065], the “efficacy (caterpillars killed)” value in the series with Spodoptera frugiperda (application rate 100 g/ha) and in the series with Spodoptera frugiperda (application rate 500 g/ha) was 100% each time. Besides, in the series on Phaedon cochleariae (application rate 500 g/ha), the “efficacy (beetle larvae killed)” value stood at 83%. In series [1] (setting [4]), the LOGP_HCOOH was determined as 4.80. In series [1] (setting [3]), this compound gave an LOGP_NEUTRAL of 4.74. Moreover, in the series with Ctenocephalides felis, the “efficacy (kill in %)” value came out at 95%.

`N#Cc1cccc(CNC(=O)c2cc(-c3ccc(C(F)(F)F)cc3)cc(NC(=O)C3CC3)n2)c1` [Example I-004]: the “efficacy (caterpillars killed)” value in the series on Spodoptera frugiperda (application rate 500 g/ha) is 100%. In addition, the “efficacy (beetle larvae killed)” value in the series with Phaedon cochleariae (application rate 500 g/ha) was determined as 100%. The LOGP_HCOOH in series [1] (setting [4]) stood at 3.83. Also, the “efficacy (kill in %)” value in the series with Ctenocephalides felis turned out to be 100%.

Turning to `CC(=O)Nc1cc(-c2ccc(C(F)(F)F)cc2)cc(C(=O)NCc2ccc(C#N)cc2)n1` [Example I-017], in the series on Spodoptera frugiperda (application rate 500 g/ha), the “efficacy (caterpillars killed)” value is 100%. Further, the “efficacy (beetle larvae killed)” value in the series with Phaedon cochleariae (application rate 500 g/ha) stood at 100%. This compound also registered an LOGP_HCOOH in series [1] (setting [4]) of 3.15. In series [1] (setting [3]), this compound gave an LOGP_NEUTRAL of 3.13. In addition, in the series with Ctenocephalides felis, the “efficacy (kill in %)” value amounted to 98%.

As to `O=C(NCc1ccc2c(c1)OC(F)(F)O2)c1cc(-c2ccc(OC(F)(F)F)cc2)cc(NC(=O)C2CC2)n1` [Example I-095], in the series on Spodoptera frugiperda (application rate 500 g/ha), the “efficacy (caterpillars killed)” value was 100%. Further, the “efficacy (beetle larvae killed)” value in the series on Phaedon cochleariae (application rate 500 g/ha) is listed as 83%. In addition, in series [1] (setting [4]), the LOGP_HCOOH is 4.79. For the same compound, in series [1] (setting [3]), the LOGP_NEUTRAL stood at 4.61. In addition, in the series with Ctenocephalides felis, the “efficacy (kill in %)” value was 95%.

On to `C#CC(C)NC(=O)c1cc(-c2ccc(OC(F)(F)F)cc2)cc(NC(=O)C2CC2)n1` (stereo not drawn) [Example I-130], for which the “efficacy (caterpillars killed)” value is on record as 83% in the series on Spodoptera frugiperda (application rate 100 g/ha) and 100% with Spodoptera frugiperda (application rate 500 g/ha). Besides, the “efficacy (beetle larvae killed)” value in the series with Phaedon cochleariae (application rate 100 g/ha) and in the series with Phaedon cochleariae (application rate 500 g/ha) was 100% in each case. The LOGP_HCOOH in series [1] (setting [2]) came to 3.84. For the same compound, in the series with Ctenocephalides felis, the “efficacy (kill in %)” value was 100%.

Turning to `N#CC1(NC(=O)c2cc(-c3ccc(C(F)(F)F)cc3)cc(NC(=O)C3CC3)n2)CC1` [Example I-041], the “efficacy (caterpillars killed)” value in the series with Spodoptera frugiperda (application rate 100 g/ha) and in the series with Spodoptera frugiperda (application rate 500 g/ha) was 100% throughout. Further, the “efficacy (beetle larvae killed)” value in the series on Phaedon cochleariae (application rate 100 g/ha) and in the series on Phaedon cochleariae (application rate 500 g/ha) was 100% in each case. The LOGP_HCOOH in series [1] (setting [4]) is 3.28. For the same compound, in series [1] (setting [3]), the LOGP_NEUTRAL was found to be 3.18. In the series with Ctenocephalides felis, the “efficacy (kill in %)” value came out at 95%.

Regarding `NC(=S)C1(NC(=O)c2cc(-c3ccc(OC(F)(F)F)cc3)cc(NC(=O)C3CC3)n2)CC1` [Example I-189], the “efficacy (caterpillars killed)” value with Spodoptera frugiperda (application rate 100 g/ha) and in the series with Spodoptera frugiperda (application rate 500 g/ha) was 100% throughout. The “efficacy (beetle larvae killed)” value with Phaedon cochleariae (application rate 100 g/ha) and with Phaedon cochleariae (application rate 500 g/ha) was 100% throughout. The LOGP_HCOOH in series [1] (setting [2]) amounted to 3.25. Moreover, the LOGP_NEUTRAL in series [1] (setting [3]) is given as 3.14. The “efficacy (kill in %)” value in the series with Ctenocephalides felis is given as 100%.

In the case of `O=C(NCc1ccc([N+](=O)[O-])cc1F)c1cc(-c2ccc(OC(F)(F)F)cc2)cc(NC(=O)C2CC2)n1` [Example I-102], the “efficacy (caterpillars killed)” value in the series with Spodoptera frugiperda (application rate 100 g/ha) worked out at 83%; with Spodoptera frugiperda (application rate 500 g/ha), 100%. Besides, the “efficacy (beetle larvae killed)” value in the series on Phaedon cochleariae (application rate 100 g/ha) and in the series on Phaedon cochleariae (application rate 500 g/ha) was 100% in each case. The compound further registered an LOGP_HCOOH in series [1] (setting [4]) of 4.29. In series [1] (setting [3]), this compound came in with an LOGP_NEUTRAL of 4.16. The “efficacy (kill in %)” value with Ctenocephalides felis is 100%.

Take `COC(=O)N(C(=O)C1CC1)c1cc(-c2ccc(OC(F)(F)F)cc2)cc(C(=O)NCc2ccc(C#N)cc2)n1` [Example I-233, Methyl {6-[(4-cyanobenzyl)carbamoyl]-4-[4-(trifluoromethoxy)phenyl]pyridin-2-yl}(cyclopropylcarbonyl)carbamate]: the pest or weed control at 100 g/ha in the series with Spodoptera frugiperda (Spodoptera frugiperda, foliar, 168 h, application rate 100 g/ha, read-out: efficacy (caterpillars killed)) amounted to 100%. Moreover, the pest or weed control at 500 g/ha amounted to 100% in the series with Spodoptera frugiperda (Spodoptera frugiperda, foliar, 168 h, application rate 500 g/ha, read-out: efficacy (caterpillars killed)) and 100% with Phaedon cochleariae (Phaedon cochleariae, foliar, 168 h, application rate 500 g/ha, read-out: efficacy (beetle larvae killed)). The compound also showed an LOGP_HCOOH in series [1] (setting [4]) of 3.90. In series [1] (log P (neutral), HPLC reversed-phase column (C 18)), the LOGP_NEUTRAL came to 3.91. For the same compound, the chromatographic logP in series [1] (pH 2.7, LC-MS acidic range, pH 2.7, 0.1% formic acid/acetonitrile, read-out: log P (acidic) / log P (HCOOH)) was determined as 3.9; in series [1] (pH 7.8, LC-MS neutral range, pH 7.8, ammonium hydrogencarbonate/acetonitrile, read-out: log P (neutral)) it was 3.91. In the series with Ctenocephalides felis (Ctenocephalides felis, po, 48 h, read-out: efficacy (kill in %)), the pest or weed control at 100 ppm was found to be 100%.

Take `N#CCNC(=O)c1cc(-c2ccc(OC(F)(F)F)cc2)cc(NC(=O)C2CC2)n1` [Example I-131]: the “efficacy (caterpillars killed)” value in the series with Spodoptera frugiperda (application rate 100 g/ha) and in the series on Spodoptera frugiperda (application rate 500 g/ha) was 100% throughout. The “efficacy (beetle larvae killed)” value in the series on Phaedon cochleariae (application rate 500 g/ha) is on record as 100%. Besides, the LOGP_HCOOH in series [1] (setting [2]) is on record as 3.15. Further, in the series on Ctenocephalides felis, the “efficacy (kill in %)” value worked out at 100%.
